Results from patent US12410166B2, “Sulfonylamidine substituted compounds and their use as beta-lactamase inhibitors” (NINGXIA ACADEMY OF AGRICULTURE AND FORESTRY SCIENCES, priority 2021, dated 2025).
Structures can show the parent of a compound that is named as a salt. Where two headings read alike, the source gives them in different places.

Columns and labels:
Experiment in all cases: MIC by broth microdilution (antibacterial and synergistic activity)
Type in all cases: cell-based
[1] = tested on: A. baumannii 19606 (strain 8, OXA-24); conditions: Acinetobacter baumannii, read-out: Antibacterial activity, MIC, inhibitor Alone
Protocol: (§1) Compounds of the present invention alone, avibactam (AVI) alone, relebactam (REL) alone, meropenem (MER) alone, imipenem (IMI) alone, and as a combination of compounds of the present invention, or avibactam or relebactam with test antibiotic (meropenem or imipenem) was tested for antimicrobial activity by determining minimum inhibitory concentration (MIC, mg/L) using the broth microdilution method according to the guidelines of the Clinical Laboratories and Standards Institute (“Methods for Dilution Antimicrobial Susceptibility Tests for Bacterial that Grow Aerobically”, Approved standard, 7th ed., Clinical and Laboratories Standards Institute (CLSI) Document M7-A8, Wayne, Pa., USA, 2009). Meropenem or imipenem as a test antibiotic compound was dissolved in DMSO, and then diluted in microbial growth medium (Mueller-Hinton Broth II, cation adjusted) resulting in a final concentration range of 0.031-64 mg/L in serial two-fold dilution. In all cases the final DMSO concentration was less than 0.5%. Bacteria were added to 96-well microtitre plates containing the serial two-fold dilutions of the compounds; the final cell density was approximately 5×10^5 colony forming units/mL (CFU/mL). Plates were incubated at 37° C. for 18-24 hours and read visually. The MIC, i.e. the lowest concentration of the test compound that inhibited visible growth of the bacteria, was recorded. The same assay conditions were used when the compounds of present invention alone, avibactam or relebactam alone (as a control), and as a combination of the present invention each compound, or avibactam or relebactam with test meropenem or imipenem antibiotic compound was tested for minimum inhibitory concentration (MIC, mg/L). While test meropenem or imipenem was serially diluted as described above, a constant concentration of avibactam, or relebactam or the present invention each compound of 4 mg/L was used.
(§2) Bacterial strains that were used to evaluate the antimicrobial activity using the MIC determination included but were not limited to E. coli clinical isolate (strain 1, TEM-1), E. coli 8739 (strain 2, CTX-M15), K. pneumoniae clinical isolate (strain 3, SHV-1), K. pneumoniae 700603 (strain 4, KPC-3, TEM-1), E. cloacae clinical isolate (strain 5, P99), E. cloacae 700323 (strain 6, AmpC), A. baumannii clinical isolate (strain 7, OXA-23, OXA-40), A. baumannii 19606 (strain 8, OXA-24), P. aeruginosa clinical isolate (strain 9, KPC-2), P. aeruginosa 9027 (strain 10, AmpC).

[2] = tested on: A. baumannii clinical isolate (strain 7, OXA-23, OXA-40); conditions: Acinetobacter baumannii, read-out: Antibacterial activity, MIC, inhibitor Alone
Protocol: as §1, §2

[3] = tested on: E. cloacae 700323 (strain 6, AmpC); conditions: Enterobacter cloacae, read-out: Antibacterial activity, MIC, inhibitor Alone
Protocol: as §1, §2

[4] = tested on: E. cloacae clinical isolate (strain 5, P99); conditions: Enterobacter cloacae, read-out: Antibacterial activity, MIC, inhibitor Alone
Protocol: as §1, §2

[5] = tested on: E. coli 8739 (strain 2, CTX-M15); conditions: Escherichia coli, read-out: Antibacterial activity, MIC, inhibitor Alone
Protocol: as §1, §2

[6] = tested on: E. coli clinical isolate (strain 1, TEM-1); conditions: Escherichia coli, read-out: Antibacterial activity, MIC, inhibitor Alone
Protocol: as §1, §2

[7] = tested on: K. pneumoniae 700603 (strain 4, KPC-3, TEM-1); conditions: Klebsiella pneumoniae, read-out: Antibacterial activity, MIC, inhibitor Alone
Protocol: as §1, §2

[8] = tested on: K. pneumoniae clinical isolate (strain 3, SHV-1); conditions: Klebsiella pneumoniae, read-out: Antibacterial activity, MIC, inhibitor Alone
Protocol: as §1, §2

[9] = tested on: P. aeruginosa 9027 (strain 10, AmpC); conditions: Pseudomonas aeruginosa, read-out: Antibacterial activity, MIC, inhibitor Alone
Protocol: as §1, §2

[10] = tested on: P. aeruginosa clinical isolate (strain 9, KPC-2); conditions: Pseudomonas aeruginosa, read-out: Antibacterial activity, MIC, inhibitor Alone
Protocol: as §1, §2

[11] = strain 7 (OXA-23/40), compound alone, no antibiotic
[12] = strain 6 (AmpC), compound alone, no antibiotic
[13] = strain 5 (P99), compound alone, no antibiotic
[14] = strain 1 (TEM-1), compound alone, no antibiotic
[15] = strain 4 (KPC-3, TEM-1), compound alone, no antibiotic
[16] = strain 3 (SHV-1), compound alone, no antibiotic
[17] = strain 10 (AmpC), compound alone, no antibiotic
[18] = strain 9 (KPC-2), compound alone, no antibiotic

Measured: MIC

N=C(NS(=O)(=O)c1ccc(C(F)(F)F)cn1)[C@@H]1CC[C@@H]2CN1C(=O)N2OS(=O)(=O)O [Ex. 20, (2S,5R)-7-oxo-2-(N-((5-(trifluoromethyl)pyridin-2-yl)sulfonyl)carbamimidoyl)-1,6-diazabicyclo[3.2.1]octan-6-yl hydrogen sulfate]
> 64 µg/mL: [1] | [2]; [11] | [3]; [12] | [4]; [13] | [5] | [6]; [14] | [7]; [15] | [8]; [16] | [9]; [17] | [10]; [18]

N=C(NS(=O)(=O)c1ccc(F)cn1)[C@@H]1CC[C@@H]2CN1C(=O)N2OS(=O)(=O)O [Ex. 23, (2S,5R)-2-(N-((5-fluoropyridin-2-yl)sulfonyl)carbamimidoyl)-7-oxo-1,6-diazabicyclo[3.2.1]octan-6-yl hydrogen sulfate]
> 64 µg/mL: [1] | [2]; [11] | [3]; [12] | [4]; [13] | [5] | [6]; [14] | [7]; [15] | [8]; [16] | [9]; [17] | [10]; [18]

N=C(NS(=O)(=O)C(F)(F)F)[C@@H]1CC[C@@H]2CN1C(=O)N2OS(=O)(=O)O [Ex. 14, (2S,5R)-7-oxo-2-(N-((trifluoromethyl)sulfonyl)carbamimidoyl)-1,6-diazabicyclo[3.2.1]octan-6-yl hydrogen sulfate]
> 64 µg/mL: [1] | [2]; [11] | [3]; [12] | [4]; [13] | [5] | [6]; [14] | [7]; [15] | [8]; [16] | [9]; [17] | [10]; [18]

Cn1ccnc1S(=O)(=O)NC(=N)[C@@H]1CC[C@@H]2CN1C(=O)N2OS(=O)(=O)O [Ex. 19, (2S,5R)-2-(N-((1-methyl-1H-imidazol-2-yl)sulfonyl)carbamimidoyl)-7-oxo-1,6-diazabicyclo[3.2.1]octan-6-yl hydrogen sulfate]
> 64 µg/mL: [1] | [2]; [11] | [3]; [12] | [4]; [13] | [5] | [6]; [14] | [7]; [15] | [8]; [16] | [9]; [17] | [10]; [18]

N=C(NS(=O)(=O)c1ccccn1)[C@@H]1CC[C@@H]2CN1C(=O)N2OS(=O)(=O)O [Ex. 12, (2S,5R)-7-Oxo-2-(N-(pyridin-2-ylsulfonyl)carbamimidoyl)-1,6-diazabicyclo[3.2.1]octan-6-yl hydrogen sulfate]
> 64 µg/mL: [1] | [2]; [11] | [3]; [12] | [4]; [13] | [5] | [6]; [14] | [7]; [15] | [8]; [16] | [9]; [17] | [10]; [18]

N=C(NS(=O)(=O)N1CCC1)[C@@H]1CC[C@@H]2CN1C(=O)N2OS(=O)(=O)O [Ex. 15, (2S,5R)-2-(N-(azetidin-1-ylsulfonyl)carbamimidoyl)-7-oxo-1,6-diazabicyclo[3.2.1]octan-6-yl hydrogen sulfate]
> 64 µg/mL: [1] | [2] | [3] | [4] | [5] | [6] | [7] | [8] | [9] | [10]

COCCS(=O)(=O)NC(=N)[C@@H]1CC[C@@H]2CN1C(=O)N2OS(=O)(=O)[O-].[Na+] [Ex. 3, Sodium (2S,5R)-2-(N-((2-methoxyethyl)sulfonyl)carbamimidoyl)-7-oxo-1,6-diazabicyclo[3.2.1]octan-6-yl sulfate]
> 64 µg/mL: [1] | [2]; [11] | [3]; [12] | [4]; [13] | [5] | [6]; [14] | [7]; [15] | [8]; [16] | [9]; [17] | [10]; [18]
